These results are taken from a melting point compilation (Tetko et al.; mined from patent text by program, amines drawn as free bases though some values may be those of a salt).

Bounds are passed on as bounds.

In general, melting point refers to the temperature, or range, at which the solid turns liquid.

`CCCCCCCCCCCCCCCCCC(=O)Oc1cc(OC)cc(OC)c1C(=O)C=Cc1ccc(OC)cc1` registered a melting point of 65 to 66 °C. In turn, `Cc1nccn1-c1cccc(-n2cnc3cc(-c4ccoc4)ccc32)c1` came in with a melting point of 105 to 107 °C.

The molecule `Cc1c(O)c(C=O)c2nc3c(O)ccc(C(=O)NCCN(C)C)c3nc2c1O` gave a melting point of over 250 °C. `COc1ccc(-c2nn(C(C)C)c(=O)c(C(N)=O)c2-c2ccc(OC)cc2)cc1`: the melting point lay in the range of 165 to 166 °C. `CCOC(=O)Cc1ncnc2c([N+](=O)[O-])cccc12` had a melting point of 162 to 164 °C. Regarding `CCn1ccc(Nc2cc(Cl)nn(C)c2=O)n1`, the melting point fell in the range of 173 to 175 °C. The molecule `Cc1ccccc1NS(=O)(=O)c1cc(S(=O)(=O)Nc2ccccc2C)c2ccccc2c1O` came in with a melting point of 220 to 222 °C.

With `COc1cc(N)c(Cl)cc1C(=O)NCC1CCN(CCCS(=O)(=O)Cc2ccc(F)cc2)CC1`, the melting point is 147 to 148 °C. Molecule `CC(=O)C(Cc1ccc(O)cc1)C(C)=O` had a melting point of 93 to 94.5 °C.

As for `C#Cc1cc(=O)n2nc(S(=O)(=O)Cc3ccccc3)sc2n1`, the melting point lay within 101 to 106 °C.

Consider `COCCN(C)CC1=Cc2cc(S(N)(=O)=O)sc2S(=O)(=O)N1C`, for which the melting point lay in the range of 127 to 129 °C. Take `O=c1cc(-c2ccccc2)oc2ccc(OCCCCN3CCC(O)CC3)cc12`: the melting point lay in the range of 124 to 125 °C. The value for `CCCCOc1ccc(C(=O)N(C)Cc2cccc(-c3ccc(CC4SC(=O)NC4=O)cc3)c2)cc1` (configuration not stated) was 116 °C.

Turning to `O=C(O)c1ccc2cccc(Br)c2c1`, the melting point lay within 265 to 266 °C. Turning to `CNC(=O)c1cccc2cccc(NC(=O)c3cccs3)c12`, the melting point was found to be 210 °C. The molecule `CC1(C)CCc2c(N3CCSCC3)nc3sc4c(NCc5ccccn5)ncnc4c3c2C1` gave a melting point of 225 to 226 °C. On to `CCOC(=O)c1cc2c3n(ccc-2n1)CC(c1cccc(OC)c1)=N3`, for which the melting point was 198 to 200 °C. Take `CC1(C)CCc2c(-c3ccoc3)nc3sc4c(NCc5cccnc5)ncnc4c3c2C1`: the melting point lay in the range of 247 to 248 °C. Consider `Cc1ccc(S(=O)(=O)OCCOc2ccc3[nH]nc(S(=O)(=O)c4ccccc4)c3c2)cc1`, for which the melting point lay within 174 to 177 °C. Consider `Nc1c2c(nc3ccccc13)CCCC2N1CCC(c2ccccc2)CC1` (configuration not stated), for which the melting point fell in the range of 189 to 190 °C.

`NC(=O)Cc1ccc(CCCOCCCCCCBr)cc1` came in with a melting point of 110 to 113 °C. `Cc1ccc(NCCNS(C)(=O)=O)cc1O` displayed a melting point of 145 °C. As to `CCCCCCn1c2cc(CO)ccc2c2ccc(CO)cc21`, the melting point was 98 to 99 °C. The value for `CCCN(CCC)CC(=O)Nc1cccc2c1C(=O)c1c(NC(=O)CN(CCC)CCC)cccc1C2=O` was 129 to 130 °C.

Turning to `O=C1NC(=O)C(Cc2ccc(N3CCC(NC[C@H](O)c4cccc(Cl)c4)CC3)cc2)S1` (some centres not stated), the melting point was 195 to 198 °C. `COc1cc2c(cc1OC)C(C(C#N)SCCO)=NCC2` (configuration not stated) showed a melting point of 138 to 140 °C. Regarding `N#CCN1CCN(c2cccc(Cl)c2Cl)CC1`, the melting point lay in the range of 89 to 92 °C.

`CC(C)(C)OC(=O)N(C(=O)OC(C)(C)C)C(Cc1c[nH]cn1)C(=O)OCc1ccccc1` (configuration not stated) returned a melting point of 97 to 99.5 °C.

`Nc1ccc(F)c(C(=O)Nc2ccccc2)c1` yielded a melting point of 120 to 122 °C. For `[N-]=[N+]=NCC1OC(n2cc(C=CBr)c(=O)[nH]c2=O)CC1Cl` (configuration not stated) the value was 58 to 60 °C.

Consider `Cc1cc2cc(CN3CCC(CC(=O)N(C)C)CC3)cnc2cc1NC(=O)c1ccc(-c2ccc(F)cc2)cc1`, for which the melting point turned out to be 219 °C. The value for `NC(=O)NCc1ccc(-c2ccc3oc([N+](=O)[O-])c(-c4ccccc4)c3c2)cc1` was 215 to 216 °C; that for `CC1CC(=O)NN=C1c1ccc2nc(C3CC3)n(Cc3ccc(-c4ccccc4-c4nnn[nH]4)cc3)c2c1` (configuration not stated) was 216 °C; that for `COc1ccc(CCN2CCC(N3CCc4ccc(CNC(C)=O)cc43)CC2)cc1` was 151 to 152 °C. `CC(C)(C)c1cc(-c2csc(CNc3ccccc3)n2)cc(C(C)(C)C)c1O` came in with a melting point of 147 to 148 °C. `CCC(C)(O)C(=O)Nc1ccc(S(=O)(=O)c2ccccc2)cc1` (configuration not stated) gave a melting point of 163 to 165 °C.

In turn, `CCc1ccc2c(c1)CC(=O)N2` came in with a melting point of 136 to 137 °C. As for `CCC(CC)(CO)CS(N)(=O)=O`, the melting point was in the range of 66 to 68 °C. Take `CCN1c2ncc(CNc3cccc([N+](=O)[O-])c3)cc2C(=O)N(C)c2ccc(Cl)nc21`: the melting point fell in the range of 171 to 172 °C. Molecule `N#CCc1ccc(OCc2ccccc2)c2c1OCCO2` registered a melting point of 95 °C. `COc1cccc(-c2nn(Cc3oc4ccccc4c(=O)c3-c3cccc(F)c3)c3ncnc(N)c23)c1` had a melting point of 175 to 178 °C. As for `CC(C)(C)c1ccc2sc3cc(C#N)ccc3c(=O)c2c1`, the melting point lay within 181 to 184 °C. For the molecule `CN1CCN(C(=O)c2ccc(-c3[nH]nc4c3C(=O)c3c(NC(=O)NN5CCOCC5)cccc3-4)s2)CC1`, the melting point was 186 to 187 °C.

On to `NC(=O)N(O)[C@H]1CC[C@H](Oc2ccccc2)C1`, for which the melting point turned out to be 134 °C. With `C=CCN1C(=O)COc2cc(Br)c(F)cc21`, the melting point came to 92 °C. Molecule `COC(=O)c1cc2ccc(N3CCOCC3)cc2c2c1C=CC(c1ccc(OC)cc1)(c1ccc(OC)cc1)O2` displayed a melting point of 154 to 155 °C. `CC(C)(C)C(=O)C(Br)Cc1cccnc1` (configuration not stated) showed a melting point of 163 to 164 °C.

Consider `CC(C)(C)c1cc(CCCO)cc(-n2nc3ccc(S(=O)(=O)c4ccccc4)cc3n2)c1O`, for which the melting point lay in the range of 159 to 161 °C. For `OC(CCc1nc(CCl)no1)c1ccc(-c2ccccc2)cc1` (configuration not stated) the value was 48 to 49 °C. In the case of `Cc1cc(C#N)c(S(C)(=O)=O)cc1C(=O)O`, the melting point was 248 to 249 °C.

In turn, `COCCOc1ccc(CCCN2C(=O)c3ccccc3C2=O)c(Oc2ncc(C(F)(F)F)cc2Cl)c1` yielded a melting point of 101 to 103 °C.

`CS(=O)(=O)c1ccc2c(C=C[N+](=O)[O-])c[nH]c2c1` registered a melting point of over 250 °C. The value for `COc1cc2cc(-c3ccc(OCC(O)CNC(C)(C)C)cc3)n(C)c(=O)c2cc1OC` (configuration not stated) was 165 to 166 °C; that for `CCOC(=O)c1ccc(N2C(=O)CCC2CO)c(NC(=NC(=O)OC(C)(C)C)NC(=O)OC(C)(C)C)c1` (configuration not stated) was 104 to 110 °C. Turning to `CCCCCCCCOc1ccc(C(=O)c2ccccc2)c(O)c1Cc1cc(C)cc(-n2nc3ccccc3n2)c1O`, the melting point was 124 to 126 °C. For `CC1(O)OC(=O)C(c2c(F)cc(F)cc2F)=C1Cc1ccc(Cl)cc1` (configuration not stated) the value was 127 to 129 °C; for `CN(C)C(=O)c1c(C(=O)CBr)c2cc(Cl)ccc2n1C(=O)OC(C)(C)C`, 110 to 115 °C.

Molecule `CS(=O)(=O)OCCN(CCOS(C)(=O)=O)c1cc(C(=O)O)c([N+](=O)[O-])cc1[N+](=O)[O-]` had a melting point of 200 to 210 °C. The molecule `CCCNC(=O)n1c(=O)cc2n1C(c1cccc([N+](=O)[O-])c1)C(C(=O)OC(C)C)=C(C)N2` (configuration not stated) displayed a melting point of 160 to 163 °C. The molecule `COc1cc(C)c2ccccc2n1` returned a melting point of 181 to 191 °C. The value for `COc1ccc(OC)c(C2(O)CCCCC2C(c2ccccc2)N(C)C)c1` (configuration not stated) was over 240 °C; that for `O=c1[nH]c2ccccc2c2nc(-c3ccco3)nn12` was 338 to 343 °C; that for `Cc1cc2c([C@@H]3C[C@H]3CNC(=O)C3CC3)cccn2n1` (relative stereo) was 124 to 128 °C. Molecule `Cc1ccc(Cl)cc1N1C(=O)CN(C(C)C)C1=S` displayed a melting point of 142 to 144 °C. Molecule `CN(C)c1nc(Cl)nc(N2CCOCC2)n1` returned a melting point of 96 to 97 °C. In the case of `CC(=O)Nc1cccc(-c2ccc(C)c(COc3cccc4ccc(C)nc34)c2C)c1`, the melting point is 197 to 199 °C. The molecule `COCN1C(=O)N(c2ccc(C#N)c(OC)c2)C(=O)C1(C)c1ccc(O)cc1` (configuration not stated) returned a melting point of 141 °C. For the molecule `CCOC(=O)c1ccccc1COc1ccc(C=O)cc1`, the melting point was in the range of 60 to 62 °C. For `CC(C)c1ccc(C(=O)C2CCNCC2)cc1` the value was 55 to 57 °C; for `COc1ccccc1CC(c1sccc1C)N(C)C=O` (configuration not stated), 80 to 83 °C. For `CC(C)(C)OC(=O)NC(Cc1cnc2ccccc2c1)C(=O)O` (configuration not stated) the value was 159 to 160 °C; for `COC1(c2ccc(Sc3ccc4c(ccc(=O)n4C)c3)s2)CCOCC1`, 119 to 120 °C; for `COc1ccc(CN2C(=O)C3CC(c4ccccc4)(C3)C2=O)cc1`, 87 to 88 °C. For the molecule `O=C(NNC(=O)c1ccncc1)Nc1cccc2c1C(=O)c1c-2n[nH]c1-c1ccc(N2CCNCC2)cc1`, the melting point came out at 232 °C. `CCCc1c(OCCCCCc2c(Cl)c(Cl)c(Cl)c(OC)c2OC)ccc(C(=O)O)c1O`: the melting point is 148 to 150 °C. For `Cc1ccccc1OCC(O)CNCCOc1ccc(C(N)=O)cn1` (configuration not stated) the value was 139 to 141 °C; for `CCCN1CCn2c(=S)[nH]c3cccc(c32)C1C` (configuration not stated), 179 °C. Turning to `COc1cc(C(=O)O)ccc1Cc1cn(C)c2ccc(C(=O)NC[C@H](C)CC(F)(F)F)cc12`, the melting point is 218 to 223 °C. For `CC(=O)NCCC(=O)NCCNC(=O)OCc1ccccc1` the value was 180 to 182 °C. In turn, `C=Cc1ccc(NS(C)(=O)=O)c(F)c1` yielded a melting point of 82 °C. For `Cc1onc(-c2c(F)cccc2Cl)c1-c1csc(N)n1` the value was 148 to 149 °C; for `Oc1ccc(N2CCSCC2)cc1`, 156 to 158 °C.

Molecule `CCc1ccnc(C(=O)c2[nH]c3ccc(Cl)cc3c2CC(=O)O)c1F` displayed a melting point of 208 °C. `OCC1CCCN1c1cc(N2CCOCC2)nc(-n2c(C(F)F)nc3c(O)cccc32)n1` (configuration not stated) showed a melting point of 195 to 198 °C. With `CCCCCCC(NC(=O)OCc1ccccc1)P(=O)(O)CC(=O)OC` (configuration not stated), the melting point is 260 to 268 °C. Molecule `COc1cc(C=CC=O)ccc1OCc1nc(-c2ccco2)oc1C` showed a melting point of 125 to 126 °C.

Molecule `NC(=O)c1nc(-c2ccc(=O)[nH]c2)c(-c2ccccc2)nc1N` gave a melting point of 215 to 220 °C.
